# Test results as given in patent US20110028566A1, “COMPOSITIONS AND PRODUCTS CONTAINING CYCLOALIPHATIC DIOL ANTIMICROBIAL AGENTS AND METHODS OF USING THE COMPOSITIONS AND PRODUCTS” (EASTMAN CHEMICAL COMPANY, priority 2009, published 2011).
# How the values were obtained:
# Assay in all cases: Microbial challenge testing in BPW
# Format in all cases: cell-based
# [1] = system: Pseudomonas aeruginosa
# Description: (§1) The microorganisms used in challenge tests are given in Table 3, designated as either ATCC (American Type Culture Collection) or wild type. These wild type organisms were problematic organisms previously isolated from chemical products. In the description for each organism, the bacteria are indicated as either GN (Gram negative) or GP (Gram positive).
# (§2) All of the microorganisms were grown in Tryptose Soy Broth (TSB), DIFCO™ available from Becton, Dickinson and Company, containing 1% dextrose. Aspergillus niger and Candida albicans were incubated at 22° C.±2° C. for at least 96 hours. All bacteria were incubated at 35° C.±2° C. in a humidified incubator for at least 96 hours.
# (§3) The following procedure was followed to determine the amount of each challenge material (inoculum broth) required to produce a 10^8 cfu/mL challenge, which is equivalent to a final test-sample microbial concentration of 10^5 to 10^6 cfu (colony-forming units)/mL.
# (§4) Using a sterile serological pipette, 1 mL of the growth from each TSB culture was transferred into tubes containing 9 mL phosphate buffer (pH 7.2) and mixed thoroughly. This process was repeated to make serial 1:10 dilutions. Then 0.1 mL of each sample and dilution was inoculated onto agar plates to produce the equivalent of a further 1:10 dilution. C. albicans and A. niger were inoculated onto SDA and bacteria were inoculated onto Plate Count Agar (PCA), DIFCO™ available from Becton, Dickinson and Company. The 0.1 mL aliquots were evenly distributed on the plates using the spread-plate technique. The spread-plate technique is performed by spreading the aliquot over the entire plate surface using a sterile spreading rod while rotating the plate with a rotary auto-plater. After the inoculum was absorbed completely, each plate was inverted and incubated (fungi at 22° C.±2° C. and bacteria at 35° C.±2° C.).
# (§5) After incubation for at least 48 hours, colonies that had developed on the agar plates were counted and recorded with the corresponding dilution. If counting had to be delayed temporarily, plates were refrigerated, preferably no more than 24 hours, until they could be counted. The number of cfu/mL was determined by multiplying the count by the dilution factor for that particular plate.
# (§6) Turbidity in Nepholemetric Turbidity Units (NTU) was measured for each serial dilution using the HF-Micro 100 Model Turbidimeter. For each microorganism, the plate counts were compared to the turbidity readings.
# (§7) Control substrates (“broth alone”) were prepared for each microorganism separately in triplicate by adding 13.5 mL of BPW (pH 7.0) containing 1% (w/v) dextrose to each 20-mL glass tube; then adding 1.5 mL challenge material to produce a final concentration at time zero of 10^5 to 10^6 cfu/mL and a total volume of 15 mL.
# (§8) Test sample substrates were prepared containing each test material (1,4-CHDM, etc) or combination of test materials at the concentrations shown in Tables 5 and 6. Sample substrates were prepared in triplicate, except those substrates containing PE or CG which were prepared in duplicate. Substrates were prepared by adding BPW containing 1% (w/v) dextrose to each 20-mL glass tube, then adding the test material in the amount appropriate to achieve the desired weight/volume percent (g/100 mL) and to obtain a total volume of BPW with dextrose and test material of 13.5 mL. Then 1.5 mL challenge material was added to produce a final concentration at time zero of 10^5 to 10^6 cfu/mL of the respective organism and a total test sample substrate volume of 15 mL.
# (§9) After mixing, all challenged substrates were incubated at 35° C.±2° C. for 14 days and then at ambient room temperature.
# [2] = system: Staphylococcus epidermidis
# Description: as §1, §2, §3, §4, §5, §6, §7, §8, §9
# [3] = system: Bacillus subtilis
# Description: as §1, §2, §3, §4, §5, §6, §7, §8, §9
# [4] = system: Aeromonas sp.
# Description: as §1, §2, §3, §4, §5, §6, §7, §8, §9
# [5] = system: Streptococcus mutans
# Description: as §1, §2, §3, §4, §5, §6, §7, §8, §9
# [6] = system: Aspergillus niger
# Description: as §1, §2
# Aspergillus niger and Candida albicans were also grown on Sabouraud dextrose agar (SDA) at 22° C.±2° C. for 7 to 14 days or until full sporulation was achieved.
# as §3, §4, §5, §6
# Aspergillus niger cultures were harvested and spores dislodged from the SDA on which they were grown by rubbing the growth gently with a sterile inoculating loop. The spores were then mixed into the broth culture that had been incubated with a sterile magnetic stir bar to reduce pellicle formation. The spore-culture mixture was filtered repeatedly through sterile, non-absorbent cotton and harvested repeatedly, adjusting vegetative cells and spores to a level of 1.0×10^8. A hemocytometer was used to verify the final challenge concentration.
# as §7
# Test sample substrates were prepared containing each test material (1,4-CHDM, etc) or combination of test materials at the concentrations shown in Tables 5 and 6.
smiles,measurement,setting,value
"OCC1CCCC(CO)C1 (centres unmarked) [1,3-CHDM]",Grade code P. aeruginosa,"[1]; 1.25%, 13 days incubation","4 (1001 to 10,000 colonies (thus 10,000 cfu/mL to 100,000 cfu/mL))"
same,Grade code P. aeruginosa,"[1]; 1.25%, 30 days incubation","4 (1001 to 10,000 colonies (thus 10,000 cfu/mL to 100,000 cfu/mL))"
same,Grade code P. aeruginosa,"[1]; 2.5%, 3 days incubation","4 (1001 to 10,000 colonies (thus 10,000 cfu/mL to 100,000 cfu/mL))"
same,Grade code P. aeruginosa,"[1]; 2.5%, 13 days incubation","4 (1001 to 10,000 colonies (thus 10,000 cfu/mL to 100,000 cfu/mL))"
same,Grade code P. aeruginosa,"[1]; 2.5%, 30 days incubation","4 (1001 to 10,000 colonies (thus 10,000 cfu/mL to 100,000 cfu/mL))"
same,Grade code S. epidermidis,"[2]; 0.5%, 3 days incubation","4 (1001 to 10,000 colonies (thus 10,000 cfu/mL to 100,000 cfu/mL))"
same,Grade code S. epidermidis,"[2]; 0.5%, 13 days incubation","4 (1001 to 10,000 colonies (thus 10,000 cfu/mL to 100,000 cfu/mL))"
same,Grade code S. epidermidis,"[2]; 0.5%, 30 days incubation","4 (1001 to 10,000 colonies (thus 10,000 cfu/mL to 100,000 cfu/mL))"
same,Grade code S. epidermidis,"[2]; 1.25%, 3 days incubation","4 (1001 to 10,000 colonies (thus 10,000 cfu/mL to 100,000 cfu/mL))"
same,Grade code S. epidermidis,"[2]; 1.25%, 13 days incubation",3.7
same,Grade code S. epidermidis,"[2]; 1.25%, 30 days incubation","4 (1001 to 10,000 colonies (thus 10,000 cfu/mL to 100,000 cfu/mL))"
same,Grade code S. epidermidis,"[2]; 2.5%, 3 days incubation","4 (1001 to 10,000 colonies (thus 10,000 cfu/mL to 100,000 cfu/mL))"
same,Grade code S. epidermidis,"[2]; 2.5%, 13 days incubation","3 (101 to 1000 colonies (thus 1000 to 10,000 cfu/mL))"
same,Grade code S. epidermidis,"[2]; 2.5%, 30 days incubation","4 (1001 to 10,000 colonies (thus 10,000 cfu/mL to 100,000 cfu/mL))"
same,Grade code B. subtilis,"[3]; 0.5%, 3 days incubation","4 (1001 to 10,000 colonies (thus 10,000 cfu/mL to 100,000 cfu/mL))"
same,Grade code B. subtilis,"[3]; 0.5%, 14 days incubation","4 (1001 to 10,000 colonies (thus 10,000 cfu/mL to 100,000 cfu/mL))"
same,Grade code B. subtilis,"[3]; 0.5%, 30 days incubation","4 (1001 to 10,000 colonies (thus 10,000 cfu/mL to 100,000 cfu/mL))"
same,Grade code B. subtilis,"[3]; 1.25%, 3 days incubation","4 (1001 to 10,000 colonies (thus 10,000 cfu/mL to 100,000 cfu/mL))"
same,Grade code B. subtilis,"[3]; 1.25%, 14 days incubation","4 (1001 to 10,000 colonies (thus 10,000 cfu/mL to 100,000 cfu/mL))"
same,Grade code B. subtilis,"[3]; 1.25%, 30 days incubation","4 (1001 to 10,000 colonies (thus 10,000 cfu/mL to 100,000 cfu/mL))"
same,Grade code B. subtilis,"[3]; 2.5%, 3 days incubation","4 (1001 to 10,000 colonies (thus 10,000 cfu/mL to 100,000 cfu/mL))"
same,Grade code B. subtilis,"[3]; 2.5%, 14 days incubation","4 (1001 to 10,000 colonies (thus 10,000 cfu/mL to 100,000 cfu/mL))"
same,Grade code B. subtilis,"[3]; 2.5%, 30 days incubation","4 (1001 to 10,000 colonies (thus 10,000 cfu/mL to 100,000 cfu/mL))"
same,Grade code Aeromonas sp,"[4]; 0.5%, 3 days incubation","5 (More than 10,000 colonies estimated (thus >100,000 cfu/mL))"
same,Grade code Aeromonas sp,"[4]; 0.5%, 14 days incubation","4 (1001 to 10,000 colonies (thus 10,000 cfu/mL to 100,000 cfu/mL))"
same,Grade code Aeromonas sp,"[4]; 0.5%, 30 days incubation","4 (1001 to 10,000 colonies (thus 10,000 cfu/mL to 100,000 cfu/mL))"
same,Grade code Aeromonas sp,"[4]; 1.25%, 3 days incubation","4 (1001 to 10,000 colonies (thus 10,000 cfu/mL to 100,000 cfu/mL))"
same,Grade code Aeromonas sp,"[4]; 1.25%, 14 days incubation","4 (1001 to 10,000 colonies (thus 10,000 cfu/mL to 100,000 cfu/mL))"
same,Grade code Aeromonas sp,"[4]; 1.25%, 30 days incubation","4 (1001 to 10,000 colonies (thus 10,000 cfu/mL to 100,000 cfu/mL))"
same,Grade code S. mutans,"[5]; 0.5%, 3 days incubation","5 (More than 10,000 colonies estimated (thus >100,000 cfu/mL))"
same,Grade code S. mutans,"[5]; 0.5%, 13 days incubation","4 (1001 to 10,000 colonies (thus 10,000 cfu/mL to 100,000 cfu/mL))"
same,Grade code S. mutans,"[5]; 0.5%, 30 days incubation","4 (1001 to 10,000 colonies (thus 10,000 cfu/mL to 100,000 cfu/mL))"
same,Grade code S. mutans,"[5]; 1.25%, 3 days incubation","4 (1001 to 10,000 colonies (thus 10,000 cfu/mL to 100,000 cfu/mL))"
same,Grade code S. mutans,"[5]; 1.25%, 13 days incubation","4 (1001 to 10,000 colonies (thus 10,000 cfu/mL to 100,000 cfu/mL))"
same,Grade code S. mutans,"[5]; 1.25%, 30 days incubation","4 (1001 to 10,000 colonies (thus 10,000 cfu/mL to 100,000 cfu/mL))"
same,Grade code S. mutans,"[5]; 2.5%, 3 days incubation","4 (1001 to 10,000 colonies (thus 10,000 cfu/mL to 100,000 cfu/mL))"
same,Grade code S. mutans,"[5]; 2.5%, 13 days incubation","4 (1001 to 10,000 colonies (thus 10,000 cfu/mL to 100,000 cfu/mL))"
same,Grade code S. mutans,"[5]; 2.5%, 30 days incubation","4 (1001 to 10,000 colonies (thus 10,000 cfu/mL to 100,000 cfu/mL))"
same,Grade code A. niger,"[6]; 0.5%, 3 days incubation",5
same,Grade code A. niger,"[6]; 0.5%, 13 days incubation",5
same,Grade code A. niger,"[6]; 0.5%, 30 days incubation",5
same,Grade code A. niger,"[6]; 1.25%, 3 days incubation",5
same,Grade code A. niger,"[6]; 1.25%, 13 days incubation",4
same,Grade code A. niger,"[6]; 1.25%, 30 days incubation",4
same,Grade code A. niger,"[6]; 2.5%, 3 days incubation",4
same,Grade code A. niger,"[6]; 2.5%, 13 days incubation",4
same,Grade code A. niger,"[6]; 2.5%, 30 days incubation",4
